Measurements from a melting point compilation (Tetko et al.; mined from patent text by program, amines drawn as free bases though some values may be those of a salt).

First: O=C1CCn2cc(C(=O)NCc3ccc(Cl)cc3)c(=O)c3cc(CN4CCOCC4)cc(c32)N1
Second: Clc1ccc(N2CCN(Cc3cn4cc(Cl)ccc4n3)CC2)cc1
The melting point of the first is higher: 235 to 240 °C for the first, 145 to 146 °C for the second.

First: CCn1c2ccc(C(=O)CCCCl)cc2c2cc(C(=O)CCCCl)ccc21
Second: COc1ccc(C(=O)CCCCCBr)cc1
The melting point of the first is higher: 106 to 108 °C for the first, 40 to 41 °C for the second.

Compared with `CC(C)(CO)c1cc(C#N)ccc1O`, `N#Cc1ccc(Cn2cncn2)c(-c2ccc(OS(N)(=O)=O)c(Cl)c2)c1` is higher in melting point: 129 to 130 °C for the first, 139 to 142 °C for the second.

Compared with `CCN1CCCC(NC(=O)c2ccccc2Nc2ccnc3c(Cl)cccc23)C1` (stereo not drawn), `Cc1cccc(Nc2ccccc2C=O)c1C` is lower in melting point: 173 to 175 °C for the first, 45 to 47 °C for the second.

First: CCOC(=O)c1cc(=O)c2cccc(Br)c2o1
Second: CN(C)CC(=O)OCc1ccc2c(c1)-c1n[nH]c(=O)c3cccc(c13)O2
The melting point of the first is lower: 124 to 126 °C for the first, 227 to 230 °C for the second.

Compared with `COCC1OC(n2cnc3c(NCc4cccc(I)c4)ncnc32)C(O)C1O` (stereo not drawn), `CCNc1cccc(C#CCCn2nc3ccccc3n2)n1` is lower in melting point: 155 to 157 °C for the first, 73 to 78 °C for the second.

Compared with `CC(C)(C)OC(=O)Nc1cc(N2CCSCC2)c(I)cc1[N+](=O)[O-]`, `COC(=O)c1cscc1Nc1ccc(F)cc1[N+](=O)[O-]` is higher in melting point: 132 to 134 °C for the first, 164 °C for the second.

Compared with `Nc1ccc2ccc(Oc3ccccc3Cl)nc2n1`, `ClCc1ccc(OCc2coc(-c3ccccc3)n2)cc1` is lower in melting point: 166 °C for the first, 129 to 130 °C for the second.

First: COc1ccc(CCc2ccc(NC=O)cc2)cc1OC
Second: COc1cc(C#CC(=O)O)cc(OC)c1OCc1ccccc1
The melting point of the first is higher: 128 to 130 °C for the first, 115 to 116 °C for the second.

First: CCOc1ccccc1C=[N+]([O-])C1CCCC1
Second: CCOc1cc(C=[N+]([O-])C(C)(C)CC(C)(C)C)ccc1OC
The melting point of the first is higher: 87.3 °C for the first, 77.5 °C for the second.

Compared with `CCCC1(C)OC(=O)C(OC(C)C)=C1c1ccc(S(C)(=O)=O)cc1` (stereo not drawn), `COC(=O)c1cc(-c2ccc(S(C)(=O)=O)cc2)n(-c2ccccc2)n1` is higher in melting point: 95 to 96 °C for the first, 190 to 193 °C for the second.

Compared with `CCCCCCCCCCCCOC(=O)c1cccc(NC(=O)NS(=O)(=O)c2ccc(C)cc2)c1`, `CCCCNC(=O)NS(=O)(=O)c1ccc(CCNC(=O)N2CCCCC2=O)cc1` is higher in melting point: 110 to 112 °C for the first, 156 to 158 °C for the second.

First: CCOC(=O)Sc1cc(C)nc(C(Cl)(Cl)Cl)n1
Second: CCOC(=O)C(Cc1cnc2ccc(OC)cc2c1)(NC(C)=O)C(=O)OCC
The melting point of the first is lower: 33 to 34.5 °C for the first, 151 to 152 °C for the second.

Going from `CCCCOCCCNC(=O)C(C)(C(C)C)C(C)C` to `COC(CNC(=O)CCN1C(=O)NC(C)(C)C1=O)OC`, the melting point rises from 40 °C to 123 °C.

Compared with `CN1c2ccccc2C(C#N)c2ccccc21`, `c1ccc2c(c1)C[C@H]1Cc3ccccc3[C@H]1O2` (relative stereo) is lower in melting point: 141 to 143 °C for the first, 59 to 60 °C for the second.

First: N#Cc1cccc(-c2nnc(-c3cccnc3)s2)c1
Second: CN1CCN=C(c2ccccc2)c2cc([N+](=O)[O-])ccc21
The melting point of the first is higher: 258 to 261 °C for the first, 186 to 187 °C for the second.

Compared with `Cc1cccc(Br)c1-c1c(C)cccc1Br`, `Cc1ccc2sc(S(=O)(=O)c3ccc(=O)[nH]n3)cc2c1` is higher in melting point: 90 to 92.3 °C for the first, 240 to 242 °C for the second.

First: O=c1n(Cc2ccccc2)c2cc(Cl)ccc2n1C1CCNCC1
Second: O=S(=O)(c1ccccc1)n1ncc2c(OCCCl)cccc21
The melting point of the first is higher: 128 °C for the first, 102 to 104 °C for the second.

First: c1cc2c(s1)CCCCN2
Second: c1ccc(-c2ncnc3sc4c(c23)CCCC4)cc1
The melting point of the first is lower: 55 to 57 °C for the first, 135 to 137 °C for the second.

First: Cc1cc(-c2oncc2CCC(=O)O)ccc1Cl
Second: CCCc1c(-c2ccc(C(=O)OC)cc2)oc2cc(NC(C)=O)ccc2c1=O
The melting point of the first is lower: 158 to 159 °C for the first, 244 °C for the second.

Compared with `CC(=O)SCC(Cc1ccccc1)C(=O)Nc1cccc(C(=O)NCC(=O)OCc2ccccc2)c1` (stereo not drawn), `CC(C)(C)OC(=O)N[C@@H](Cc1ccc(OCc2ccccc2)cc1)C(=O)NCCN1CCCCC1` is lower in melting point: 122 to 123 °C for the first, 54 to 61 °C for the second.

First: Cc1nc(N2CCN(Cc3ccc(C(F)(F)F)cc3)C2=O)sc1Br
Second: CC1(N)CN(C(=O)Nc2ccc(C(F)(F)F)cc2)N=C1c1ccc(Cl)cc1 (stereo not drawn)
The melting point of the first is lower: 107 to 108 °C for the first, 165 to 167 °C for the second.

First: CCCCc1oc2ccccc2c1-c1ccc(-c2ccc(O)cc2)cc1
Second: CCc1sc2c(c1C)c(=O)c1cccc(C(=O)O)c1n2Cc1ccc(-c2ccccc2C#N)cc1
The melting point of the first is lower: 128 to 129 °C for the first, 203 to 205 °C for the second.

Compared with `COC(=O)C(CC(C)C)NCC(=O)n1c(=O)cc(-c2ccccc2)c2cc(C(c3ccc(Cl)cc3)n3ccnc3)ccc21` (stereo not drawn), `Cc1noc(NS(=O)(=O)c2ccccc2-c2ccc(-c3ncco3)cc2CN(C)C(=O)c2ccc(Cl)cc2)c1C` is higher in melting point: 118 °C for the first, 122 to 132 °C for the second.

First: CCOC(=O)C1C(=O)NC(=O)CC1c1ccc(F)cc1 (stereo not drawn)
Second: CN(CCOc1ccc(C(N)=O)cc1)CCc1ccc(N)cc1
The melting point of the first is lower: 97 to 99 °C for the first, 110 to 112 °C for the second.

Compared with `CC(C(=O)Nc1ccc(Cl)cc1Cl)N1C(=O)C=CC1=O` (stereo not drawn), `CCCc1c(C(=O)C(C)C)c2ccc(C(N)=O)cc2n1Cc1ccccc1[N+](=O)[O-]` is higher in melting point: 131 °C for the first, 181 to 182 °C for the second.

First: CN(C)N=Nc1cc([N+](=O)[O-])sc1C(=O)O
Second: Cc1cc(Cl)c(N)c([N+](=O)[O-])c1
The melting point of the first is higher: 184 to 186 °C for the first, 68.5 to 69.5 °C for the second.

First: CCCc1c(OCCOCCOCCOc2c(C(C)=O)ccc(OCC(=O)O)c2CCC)ccc(C(C)=O)c1O
Second: CC(=O)OC1CSC(Oc2cccc(-c3cc(Cl)ccn3)c2)C(OC(C)=O)C1OC(C)=O (stereo not drawn)
The melting point of the first is lower: 74 to 77 °C for the first, 152 °C for the second.

First: Cc1sc(CO)c(C)c1C
Second: CCC(CC)n1nnc2c(Oc3c(C)cc(C)cc3C)nc(C)c(C)c21
The melting point of the first is lower: 45 to 48 °C for the first, 127 to 129 °C for the second.

Compared with `S=C=NCC1CC(c2ccc(Br)cc2)=NO1` (stereo not drawn), `CC(C)(C)c1ccc(C2(CN)CC2)cc1` is lower in melting point: 123 to 125 °C for the first, 39 to 41 °C for the second.

First: CCCCSc1cc(C(=O)OCC#N)cc(S(N)(=O)=O)c1Cc1ccccc1
Second: Cc1oc(-c2ccccc2)nc1CCOc1ccc(CC#N)cc1
The melting point of the first is higher: 112 to 114 °C for the first, 109 to 110 °C for the second.

First: COc1cc2c(c3c1OC(C)(C)C3)C(c1cccc(NC(=O)Cc3ccncc3)c1)=NC(C)(C)C2
Second: COc1ccc2c(c1)C(C(=O)N(Cc1ccc(N)cc1)c1ccc(C(C)C)cc1)CCC2 (stereo not drawn)
The melting point of the first is higher: 124 to 128 °C for the first, 115 to 117 °C for the second.

Compared with `COc1cc2c(c(OC)c1OC)C[C@@H](N1CCN(C(=O)C=Cc3ccccc3)CC1)[C@@H]2O` (relative stereo), `O=C(c1ccc(-c2ccnnc2)cc1)N1CCN(S(=O)(=O)c2cc3cc(Cl)ccc3[nH]2)CC1` is higher in melting point: 162 to 163 °C for the first, 170 to 172 °C for the second.

Compared with `CC(C)C(C(=O)O)n1nc(Br)c(Br)c1Br` (stereo not drawn), `CC(=O)Nc1nc2c(nc(F)n2COCCOC(C)=O)c(=O)[nH]1` is higher in melting point: 92 to 95 °C for the first, 196 to 198 °C for the second.

First: Cc1cccc(-c2n[nH]cc2-c2ccc(F)c(-c3ccc(S(C)(=O)=O)cc3)c2)n1
Second: CCCN(c1cccc(-c2ccnc3c([N+](=O)[O-])cnn23)c1)S(C)(=O)=O
The melting point of the first is lower: 100 to 102 °C for the first, 165 to 167 °C for the second.

Compared with `CCOC(=O)c1cc(CCC2CNc3nc(NC(=O)C(C)(C)C)nc(O)c3C2)[nH]n1` (stereo not drawn), `CCOC(=O)C(N)=NOC(=O)c1cnccc1C(F)(F)F` is lower in melting point: 235 to 237 °C for the first, 172 to 174 °C for the second.

With `CN(C)C=Nc1[nH]nc(-c2cccc([N+](=O)[O-])c2)c1C#N` the melting point was 221 to 225 °C.
